Results as given in US20220281846A1, “COMPOUNDS AND COMPOSITIONS FOR THE TREATMENT OF RESPIRATORY DISEASES” (THE UNIVERSITY OF MELBOURNE, priority 2018, published 2022).
“And” between values parts separate entries of the source, which are not always exact repeats. Equal entries are not always repeated. Marks after values point to notes of the source that are not given here.

Experiments:
[1] = In vitro metabolic stability, human liver microsomes; format: in vitro ADME
Method: Human Microsomal Stability of Compounds of the Invention
In Vitro Metabolic Stability
Incubation: The metabolic stability assay was performed by incubating each test compound in human liver microsomes at 37° C. and a protein concentration of 0.4 mg/mL. The metabolic reaction was initiated by the addition of an NADPH-regenerating system and quenched at various time points over a 60 minute incubation period by the addition of acetonitrile containing diazepam as internal standard. Control samples (containing no NADPH) were included (and quenched at 2, 30 and 60 minutes) to monitor for potential degradation in the absence of cofactor. The human liver microsomes used in this experiment were supplied by XenoTech, lot #1410230. Microsomal incubations were performed at a substrate concentration of 1 μM. Data analysis: Species scaling factors from Ring et al. (2011) JPharmSci, 100:4090-4110 were used to convert the in vitro CLint (μL/min/mg) to an in vivo CLint(mL/min/kg). Hepatic blood clearance and the corresponding hepatic extraction ratio (EH) were calculated using the well stirred model of hepatic extraction in each species, according to the “in vitro T1/2” approach described in Obach (1999) DrugMetab. Dispos. 27:1350-1359. The EH was then used to classify compounds as low(<0.3), intermediate (0.3-0.7), high (0.7-0.95) or very high (>0.95) extraction compounds. Predicted in vivo clearance values have not been corrected for microsomal or plasma protein binding. Species scaling calculations are based on two assumptions: 1) NADPH-dependent oxidative metabolism predominates over other metabolic routes (i.e. direct conjugative metabolism, reduction, hydrolysis, etc.), and; 2) rates of metabolism and enzyme activities in vitro are truly reflective of those that exist in vivo. If significant non-NADPH-mediated degradation is observed in microsome control samples, then assumption (1) is invalid and predicted clearance parameters are therefore not reported.

[2] = Mouse pharmacokinetics, IV and oral administration; format: in vivo; conditions: male C57BL/6 mice
Method: PF670462 (2HCl.0.4 mol. eq. isopropanol) and ZH3-138 (unionised) were administered to male C57BL/6 mice by IV (3 mg/kg) or orally (10 mg/kg). IV administration was achieved by bolus injection into the tail vein of mice using 1 mL syringe with 25G×1″ needle at a volume of 3 mL/kg. Oral administration was achieved by gavage needle at a volume of 3 mL/kg.
Intravenous (IV) and oral formulations were prepared using the same method. On the day of dosing, each of the solid compound was dissolved in DMSO to which an aqueous solution containing 10% Captisol was added. Hydrochloric acid (1 M) was used to modify pH for the formulation of ZH3-138 with the purpose of solubilising the compound (see Section B for the final pH of each formulation). The formulations of each compound were thoroughly vortexed, producing colourless solutions for all three compounds.
The systemic exposure of PF670462 and ZH3-138 was studied in non-fasted male C57BL/6 mice weighing 19.8-26.8 g. Mice had access to food and water ad libitum throughout the pre- and post-dose sampling period.
Compounds were dosed to mice by bolus injection into the lateral tail vein (3 mL/kg) for IV administration and by gavage (3 mL/kg) for oral administration. Following IV and oral administration, blood samples were collected up to 24 h (n=3 mice per time point) with a maximum of three samples from each mouse. Samples were collected via submandibular bleed (approximately 120 μL; conscious sampling). No urine samples were collected as mice were housed in bedded cages.
Blood was collected into polypropylene Eppendorf tubes containing heparin as anticoagulant and stabilisation cocktail (containing Complete® (a protease inhibitor cocktail) and potassium fluoride) to minimise the potential for ex vivo compound degradation in blood/plasma samples.
Once collected, blood samples were centrifuged immediately, supernatant plasma was removed, and stored at −80° C. until analysis by LC-MS.
Plasma samples were quantified against calibration standards prepared by spiking blank mouse plasma (50 μL) with solution standards (10 μL) obtained by diluting a stock solution of test compound (1 mg/mL in DMSO) with 50% acetonitrile in water. Diazepam (10 μL of 5 μg/mL in 50% acetonitrile/water) was added to all plasma calibration standards and samples as an internal standard (IS). The extraction of the test compound and IS from plasma was conducted using protein precipitation with acetonitrile. Protein precipitation was carried out by the addition of acetonitrile followed by vortexing and centrifugation (10,000 rpm) for 3 minutes to obtain supernatant for analysis using the LC-MS conditions described in Table 7.

- Predicted EH (hepatic extraction ratio) ([1]; human liver microsomes): 0.88
- CLint, in vitro ([1]; human liver microsomes, 1 μM): 192 μL/min/mg protein
- T1/2 ([1]; human liver microsomes, 1 μM, 0.4 mg/mL protein, 37° C.): 9 min
- Predicted CLint, in vivo ([1]; scaled from human liver microsomes): 158 mL/min/kg
- Predicted CLblood ([1]; scaled from human liver microsomes, well stirred model): 18 mL/min/kg
- apparent blood clearance [2]: moderate
- apparent blood volume of distribution [2]: moderate
- time post-dose for which plasma concentration was measurable (above LLQ) ([2]; 24 h sampling period): up to 4 h
- Plasma Concentration, Mean ([2]; IV 2.42 mg/kg, 0.017 h): 15500 nM
- Plasma Concentration, Individual ([2]; IV 2.42 mg/kg, 0.017 h, 2.42 mg/kg): 18.4 µM and 10.9 µM and 17.3 µM
- Plasma Concentration, Mean ([2]; IV 2.42 mg/kg, 0.033 h): 8140 nM
- Plasma Concentration, Individual ([2]; IV 2.42 mg/kg, 0.033 h, 2.42 mg/kg): 8.83 µM and 8.03 µM and 7.57 µM
- Plasma Concentration, Mean ([2]; IV 2.42 mg/kg, 0.083 h): 6090 nM
- Plasma Concentration, Individual ([2]; IV 2.42 mg/kg, 0.083 h, 2.42 mg/kg): 5.58 µM and 5.99 µM and 6.70 µM
- Plasma Concentration, Mean ([2]; IV 2.42 mg/kg, 0.25 h): 2480 nM
- Plasma Concentration, Individual ([2]; IV 2.42 mg/kg, 0.25 h, 2.42 mg/kg): 2.38 µM and 2.32 µM and 2.75 µM
- Plasma Concentration, Mean ([2]; IV 2.42 mg/kg, 0.5 h): 851 nM
- Plasma Concentration, Individual ([2]; IV 2.42 mg/kg, 0.5 h, 2.42 mg/kg): 0.900 µM and 0.566 µM and 1.09 µM
- Plasma Concentration, Mean ([2]; IV 2.42 mg/kg, 1.0 h): 190 nM
- Plasma Concentration, Individual ([2]; IV 2.42 mg/kg, 1.0 h, 2.42 mg/kg): 0.193 µM and 0.165 µM and 0.212 µM
- Plasma Concentration, Mean ([2]; IV 2.42 mg/kg, 2.0 h): 253 nM
- Plasma Concentration, Individual ([2]; IV 2.42 mg/kg, 2.0 h, 2.42 mg/kg): 0.0263 µM and 0.0207 µM and 0.0290 µM
- Plasma Concentration, Mean ([2]; IV 2.42 mg/kg, 4.0 h): 2.09 nM
- Plasma Concentration, Mean ([2]; oral 10.1 mg/kg, 0.25 h): 1250 nM
- Plasma Concentration, Individual ([2]; oral 10.1 mg/kg, 0.25 h, 10.1 mg/kg): 1.45 µM and 0.873 µM and 1.44 µM
- Plasma Concentration, Mean ([2]; oral 10.1 mg/kg, 0.50 h): 941 nM
- Plasma Concentration, Individual ([2]; oral 10.1 mg/kg, 0.50 h, 10.1 mg/kg): 1.95 µM and 0.508 µM and 0.366 µM
- Plasma Concentration, Mean ([2]; oral 10.1 mg/kg, 1.0 h): 292 nM
- Plasma Concentration, Individual ([2]; oral 10.1 mg/kg, 1.0 h, 10.1 mg/kg): 0.260 µM and 0.340 µM and 0.277 µM
- Plasma Concentration, Mean ([2]; oral 10.1 mg/kg, 2.0 h): 103 nM
- Plasma Concentration, Individual ([2]; oral 10.1 mg/kg, 2.0 h, 10.1 mg/kg): 0.140 µM and 0.0641 µM and 0.104 µM
- Plasma Concentration, Mean ([2]; oral 10.1 mg/kg, 4.0 h): 16.5 nM
- Plasma Concentration, Individual ([2]; oral 10.1 mg/kg, 4.0 h, 10.1 mg/kg): 0.0318 µM and 0.0106 µM and 0.00703 µM
- apparent half-life ([2]; plasma): approximately 0.5 h
Structure (SMILES): Nc1nccc(-c2c(-c3ccc(F)cc3)ncn2C2CCCCC2)n1 [PF670462, reference compound]
- Plasma Concentration, Individual ([2]; IV 2.42 mg/kg, 4.0 h, values only marginally below the LLQ, 2.42 mg/kg): 0.00222 ^a μM and 0.00134 ^a μM and 0.0027 ^a μM
